Legend:
Glucocorticoid receptor = target: T1, Glucocorticoid receptor (Homo sapiens, UniProt P04150); assay type: functional
T1 sequence (P04150 whole entry): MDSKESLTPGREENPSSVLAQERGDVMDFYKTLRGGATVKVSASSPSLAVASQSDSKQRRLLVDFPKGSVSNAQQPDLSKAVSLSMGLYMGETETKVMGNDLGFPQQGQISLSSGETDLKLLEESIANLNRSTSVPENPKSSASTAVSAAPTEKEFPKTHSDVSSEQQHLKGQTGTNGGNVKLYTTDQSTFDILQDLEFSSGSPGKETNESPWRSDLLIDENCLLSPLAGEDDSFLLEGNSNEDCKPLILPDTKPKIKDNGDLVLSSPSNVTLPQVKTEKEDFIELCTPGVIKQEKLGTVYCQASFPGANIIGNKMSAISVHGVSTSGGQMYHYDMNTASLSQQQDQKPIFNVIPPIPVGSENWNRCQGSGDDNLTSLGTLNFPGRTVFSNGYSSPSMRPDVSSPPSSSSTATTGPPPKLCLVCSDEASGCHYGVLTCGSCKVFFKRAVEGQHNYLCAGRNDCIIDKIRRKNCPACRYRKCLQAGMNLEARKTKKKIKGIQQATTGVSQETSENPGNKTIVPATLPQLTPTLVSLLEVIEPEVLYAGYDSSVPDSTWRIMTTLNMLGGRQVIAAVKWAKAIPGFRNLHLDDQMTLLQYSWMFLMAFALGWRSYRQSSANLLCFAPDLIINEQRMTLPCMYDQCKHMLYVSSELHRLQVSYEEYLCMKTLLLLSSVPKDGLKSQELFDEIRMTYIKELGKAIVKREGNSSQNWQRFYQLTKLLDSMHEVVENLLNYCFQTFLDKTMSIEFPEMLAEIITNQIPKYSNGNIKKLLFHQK

Substance-P receptor = Substance-P receptor (Homo sapiens, UniProt P25103)
Substance-P receptor, sequence (P25103 whole entry): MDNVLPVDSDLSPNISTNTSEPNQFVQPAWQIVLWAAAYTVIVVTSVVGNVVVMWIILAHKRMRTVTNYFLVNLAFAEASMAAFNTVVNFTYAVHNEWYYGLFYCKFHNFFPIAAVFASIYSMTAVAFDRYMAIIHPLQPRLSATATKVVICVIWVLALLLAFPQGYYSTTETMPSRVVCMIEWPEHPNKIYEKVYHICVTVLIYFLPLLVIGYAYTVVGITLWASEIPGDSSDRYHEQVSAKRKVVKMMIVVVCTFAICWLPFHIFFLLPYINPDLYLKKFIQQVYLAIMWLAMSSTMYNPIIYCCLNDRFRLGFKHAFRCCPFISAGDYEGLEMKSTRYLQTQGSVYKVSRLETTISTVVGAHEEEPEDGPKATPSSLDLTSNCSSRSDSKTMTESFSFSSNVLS

Estrogen receptor [1] = target: T2, Estrogen receptor (Homo sapiens, UniProt P03372); assay type: functional
T2 sequence (P03372 whole entry): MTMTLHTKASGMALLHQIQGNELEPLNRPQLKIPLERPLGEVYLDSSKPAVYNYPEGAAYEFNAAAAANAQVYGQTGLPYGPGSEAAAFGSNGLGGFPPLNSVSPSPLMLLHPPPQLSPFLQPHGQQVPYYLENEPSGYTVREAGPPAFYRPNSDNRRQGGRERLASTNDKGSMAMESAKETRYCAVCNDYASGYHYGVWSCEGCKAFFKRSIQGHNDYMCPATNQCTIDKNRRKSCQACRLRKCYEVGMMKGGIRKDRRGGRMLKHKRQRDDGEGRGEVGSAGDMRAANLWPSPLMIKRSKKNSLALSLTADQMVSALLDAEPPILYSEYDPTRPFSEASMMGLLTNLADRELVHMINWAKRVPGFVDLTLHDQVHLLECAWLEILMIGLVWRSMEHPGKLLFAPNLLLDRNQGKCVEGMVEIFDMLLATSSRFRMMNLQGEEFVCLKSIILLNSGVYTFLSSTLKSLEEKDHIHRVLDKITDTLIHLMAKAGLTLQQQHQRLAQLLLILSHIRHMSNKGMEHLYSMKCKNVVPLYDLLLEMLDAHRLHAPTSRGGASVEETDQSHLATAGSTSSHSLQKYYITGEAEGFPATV

[2] = target: T3, Peroxisome proliferator-activated receptor gamma (Homo sapiens, UniProt P37231); assay type: functional
T3 sequence (P37231 whole entry): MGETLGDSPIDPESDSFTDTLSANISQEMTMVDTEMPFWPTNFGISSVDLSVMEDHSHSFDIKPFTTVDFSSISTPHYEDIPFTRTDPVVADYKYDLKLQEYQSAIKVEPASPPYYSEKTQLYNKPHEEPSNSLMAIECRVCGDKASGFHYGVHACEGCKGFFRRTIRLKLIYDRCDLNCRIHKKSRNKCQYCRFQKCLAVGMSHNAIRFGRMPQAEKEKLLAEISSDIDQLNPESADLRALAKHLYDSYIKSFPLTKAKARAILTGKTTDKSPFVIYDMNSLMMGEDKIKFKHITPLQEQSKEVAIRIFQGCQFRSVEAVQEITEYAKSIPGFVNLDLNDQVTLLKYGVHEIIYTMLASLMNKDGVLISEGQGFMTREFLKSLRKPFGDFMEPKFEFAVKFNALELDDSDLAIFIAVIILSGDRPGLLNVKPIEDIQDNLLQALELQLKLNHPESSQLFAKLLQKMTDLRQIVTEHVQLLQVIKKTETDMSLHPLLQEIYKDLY

[3] = target: 5-hydroxytryptamine receptor 6 (Homo sapiens, UniProt P50406)
5-hydroxytryptamine receptor 6, sequence (P50406 whole entry): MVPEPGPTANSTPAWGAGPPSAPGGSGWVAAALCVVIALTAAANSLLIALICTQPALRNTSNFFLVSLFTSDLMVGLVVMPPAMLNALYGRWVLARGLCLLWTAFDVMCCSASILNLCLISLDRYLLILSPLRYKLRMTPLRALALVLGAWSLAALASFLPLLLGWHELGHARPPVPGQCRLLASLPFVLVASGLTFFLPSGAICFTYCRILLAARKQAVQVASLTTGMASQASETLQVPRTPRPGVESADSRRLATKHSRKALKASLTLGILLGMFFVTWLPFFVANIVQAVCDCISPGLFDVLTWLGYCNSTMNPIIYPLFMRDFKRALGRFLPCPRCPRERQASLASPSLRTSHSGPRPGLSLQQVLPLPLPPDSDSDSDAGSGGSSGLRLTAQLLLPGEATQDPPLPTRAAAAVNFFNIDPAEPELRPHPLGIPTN

Estrogen receptor [4] = target: T2, Estrogen receptor; assay type: functional; remark: listed apart in the source
[5] = target: Epidermal growth factor receptor (Homo sapiens, UniProt P00533); assay type: functional
Epidermal growth factor receptor, sequence (P00533 whole entry): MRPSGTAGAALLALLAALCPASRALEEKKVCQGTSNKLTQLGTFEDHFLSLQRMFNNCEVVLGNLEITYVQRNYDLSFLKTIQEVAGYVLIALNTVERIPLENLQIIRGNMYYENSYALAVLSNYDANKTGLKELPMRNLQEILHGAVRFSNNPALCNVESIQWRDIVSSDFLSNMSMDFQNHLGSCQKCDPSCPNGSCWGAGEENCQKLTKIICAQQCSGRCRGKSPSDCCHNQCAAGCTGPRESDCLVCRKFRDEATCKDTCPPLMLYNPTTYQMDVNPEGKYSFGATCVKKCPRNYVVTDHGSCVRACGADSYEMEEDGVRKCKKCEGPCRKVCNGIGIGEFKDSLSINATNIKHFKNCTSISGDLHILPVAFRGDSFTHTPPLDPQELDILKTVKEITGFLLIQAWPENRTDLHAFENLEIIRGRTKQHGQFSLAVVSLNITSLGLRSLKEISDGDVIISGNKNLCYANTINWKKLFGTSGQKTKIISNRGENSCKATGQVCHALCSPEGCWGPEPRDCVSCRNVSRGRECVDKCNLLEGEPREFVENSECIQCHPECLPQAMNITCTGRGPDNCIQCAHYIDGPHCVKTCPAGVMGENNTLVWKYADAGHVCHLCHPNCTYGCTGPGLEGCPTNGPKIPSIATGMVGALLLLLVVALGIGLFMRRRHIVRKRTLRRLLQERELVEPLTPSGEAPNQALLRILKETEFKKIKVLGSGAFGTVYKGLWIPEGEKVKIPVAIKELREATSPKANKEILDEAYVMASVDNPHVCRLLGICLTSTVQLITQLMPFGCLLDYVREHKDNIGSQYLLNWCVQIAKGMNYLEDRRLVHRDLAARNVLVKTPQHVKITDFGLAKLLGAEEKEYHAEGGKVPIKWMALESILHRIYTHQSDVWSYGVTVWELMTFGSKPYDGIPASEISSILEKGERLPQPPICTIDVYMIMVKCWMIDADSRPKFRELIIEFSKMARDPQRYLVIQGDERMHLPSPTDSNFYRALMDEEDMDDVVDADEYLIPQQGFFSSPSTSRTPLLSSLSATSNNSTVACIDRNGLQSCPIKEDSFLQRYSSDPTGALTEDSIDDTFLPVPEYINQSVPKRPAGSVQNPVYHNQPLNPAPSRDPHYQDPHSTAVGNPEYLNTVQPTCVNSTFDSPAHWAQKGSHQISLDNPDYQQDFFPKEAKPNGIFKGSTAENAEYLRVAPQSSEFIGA

Acetylcholinesterase = Acetylcholinesterase (Homo sapiens, UniProt P22303); assay type: functional
Acetylcholinesterase, sequence (P22303 whole entry): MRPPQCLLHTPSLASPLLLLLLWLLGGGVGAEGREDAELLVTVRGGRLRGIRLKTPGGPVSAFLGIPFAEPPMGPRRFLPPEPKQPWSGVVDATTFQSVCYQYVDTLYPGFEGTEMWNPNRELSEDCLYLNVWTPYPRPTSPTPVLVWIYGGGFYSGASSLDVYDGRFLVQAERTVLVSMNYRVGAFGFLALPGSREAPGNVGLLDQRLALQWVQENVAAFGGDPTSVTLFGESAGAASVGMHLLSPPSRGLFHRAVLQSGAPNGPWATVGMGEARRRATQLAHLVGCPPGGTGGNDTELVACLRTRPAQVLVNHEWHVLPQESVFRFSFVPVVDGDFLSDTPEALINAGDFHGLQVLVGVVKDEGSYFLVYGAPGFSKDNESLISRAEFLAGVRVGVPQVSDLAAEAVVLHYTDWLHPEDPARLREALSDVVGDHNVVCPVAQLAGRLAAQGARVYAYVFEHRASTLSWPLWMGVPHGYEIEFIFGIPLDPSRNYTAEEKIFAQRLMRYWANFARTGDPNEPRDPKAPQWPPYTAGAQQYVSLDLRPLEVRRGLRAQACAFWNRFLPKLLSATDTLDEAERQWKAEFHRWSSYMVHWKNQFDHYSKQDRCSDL

D(1A) dopamine receptor = D(1A) dopamine receptor (Homo sapiens, UniProt P21728); assay type: functional, cell-based
D(1A) dopamine receptor, sequence (P21728 whole entry): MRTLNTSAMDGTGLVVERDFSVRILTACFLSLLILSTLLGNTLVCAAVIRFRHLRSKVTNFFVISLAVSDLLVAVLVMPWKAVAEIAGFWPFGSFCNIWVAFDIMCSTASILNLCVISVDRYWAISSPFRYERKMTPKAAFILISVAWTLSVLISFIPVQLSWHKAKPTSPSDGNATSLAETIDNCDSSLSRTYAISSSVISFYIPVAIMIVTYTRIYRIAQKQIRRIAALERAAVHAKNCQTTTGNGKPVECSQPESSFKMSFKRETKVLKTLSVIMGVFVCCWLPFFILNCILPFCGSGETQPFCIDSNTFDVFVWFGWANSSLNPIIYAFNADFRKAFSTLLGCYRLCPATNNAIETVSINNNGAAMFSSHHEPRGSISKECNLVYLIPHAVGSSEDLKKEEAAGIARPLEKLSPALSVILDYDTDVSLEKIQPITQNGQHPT

[6] = target: T4, Alpha-1A adrenergic receptor (Homo sapiens, UniProt P35348)
T4 sequence (P35348 whole entry): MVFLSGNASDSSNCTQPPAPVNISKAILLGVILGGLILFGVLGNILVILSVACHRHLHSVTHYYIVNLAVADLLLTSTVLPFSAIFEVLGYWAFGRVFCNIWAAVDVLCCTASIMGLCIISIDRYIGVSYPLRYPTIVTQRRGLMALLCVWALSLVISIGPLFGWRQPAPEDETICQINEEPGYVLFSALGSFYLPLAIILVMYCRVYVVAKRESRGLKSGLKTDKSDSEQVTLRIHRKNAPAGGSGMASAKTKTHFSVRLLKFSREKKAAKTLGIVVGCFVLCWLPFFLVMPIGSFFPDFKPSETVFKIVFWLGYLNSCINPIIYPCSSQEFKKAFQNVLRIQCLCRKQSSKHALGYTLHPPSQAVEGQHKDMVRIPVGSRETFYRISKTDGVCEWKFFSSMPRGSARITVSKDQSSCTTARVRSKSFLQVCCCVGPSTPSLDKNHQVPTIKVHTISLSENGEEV
Also: assay procedure not described here.

SMILES	AC50 (Glucocorticoid receptor)	AC50 (Substance-P receptor)	AC50 (Estrogen receptor [1])	AC50 [2]	AC50 (Estrogen receptor [4])	further results
CCOc1nc2cccc(C(=O)O)c2n1Cc1ccc(-c2ccccc2-c2nnn[nH]2)cc1	> 30 µM	> 10 µM	> 30 µM	18 µM	> 30 µM	AC50 [3]: > 10 µM
CCCc1nc2c(C)cc(-c3nc4ccccc4n3C)cc2n1Cc1ccc(-c2ccccc2C(=O)O)cc1	> 30 µM	> 10 µM	> 30 µM	19 µM	> 30 µM	AC50 [3]: > 10 µM
CCOc1cc([C@@H](CS(C)(=O)=O)N2C(=O)c3cccc(NC(C)=O)c3C2=O)ccc1OC	> 30 µM		> 30 µM	> 30 µM	> 30 µM	AC50 [5]: > 30 µM; AC50 (Acetylcholinesterase): > 30 µM; AC50 (D(1A) dopamine receptor): > 30 µM
Nc1c(CC(=O)O)cccc1C(=O)c1ccc(Br)cc1 [BROMFENAC]						AC50 [6]: > 30 µM
CC1(C)S[C@@H]2[C@H](NC(=O)C(C(=O)O)c3ccccc3)C(=O)N2[C@H]1C(=O)O (some centres not stated) [CARBENICILLIN]				> 30 µM		
Cc1nnc(SCC2=C(C(=O)O)N3C(=O)[C@@H](NC(=O)Cn4cnnn4)[C@H]3SC2)s1 [CEFAZOLIN]			> 300 µM	> 300 µM	> 300 µM	AC50 [5]: > 300 µM; AC50 (Acetylcholinesterase): > 300 µM; AC50 (D(1A) dopamine receptor): > 300 µM
CC(C)(O/N=C(\C(=O)N[C@@H]1C(=O)N2C(C(=O)[O-])=C(C[n+]3ccccc3)CS[C@H]12)c1csc(N)n1)C(=O)O [CEFTAZIDIME]	> 300 µM		> 300 µM		48 µM	AC50 [5]: > 3 µM; AC50 (Acetylcholinesterase): > 300 µM; AC50 (D(1A) dopamine receptor): > 300 µM
CC(C)NC(=N)NC(=N)Nc1ccc(Cl)c(Cl)c1 [CHLORPROGUANIL]						AC50 [6]: 2.74 µM
Clc1ccc(Cn2c(CN3CCCC3)nc3ccccc32)cc1 [CLEMIZOLE]	> 30 µM			> 30 µM		AC50 [5]: > 30 µM; AC50 (Acetylcholinesterase): > 30 µM; AC50 (D(1A) dopamine receptor): > 30 µM
CCC(=O)O[C@]1(C(=O)CCl)[C@@H](C)C[C@H]2[C@@H]3CCC4=CC(=O)C=C[C@]4(C)[C@@]3(F)[C@@H](O)C[C@@]21C [CLOBETASOL PROPIONATE]			> 30 µM	18 µM	> 30 µM	
Cc1nc(Nc2ncc(C(=O)Nc3c(C)cccc3Cl)s2)cc(N2CCN(CCO)CC2)n1 [DASATINIB]						AC50 [3]: > 10 µM
CC(C)Cc1ccc([C@H](C)C(=O)O)cc1 [DEXIBUPROFEN]	> 30 µM		> 30 µM		> 30 µM	
O=C(O)Cc1ccccc1Nc1c(Cl)cccc1Cl [DICLOFENAC]		> 10 µM				AC50 [3]: > 10 µM
CN[C@@H]1[C@H](O[C@H]2[C@H](O[C@H]3[C@H](O)[C@@H](O)[C@H](NC(=N)N)[C@@H](O)[C@@H]3NC(=N)N)O[C@@H](C)[C@]2(O)CO)O[C@@H](CO)[C@H](O)[C@H]1O [DIHYDROSTREPTOMYCIN]						AC50 [6]: > 30 µM
CNC[C@H](O)c1ccc(O)c(O)c1 [EPINEPHRINE]			> 30 µM	> 30 µM	> 30 µM	
O=C(O)Cc1ccccc1Oc1ccc(Cl)cc1Cl [FENCLOFENAC]		> 10 µM				
Cc1onc(-c2c(F)cccc2Cl)c1C(=O)N[C@@H]1C(=O)N2[C@@H]1SC(C)(C)[C@@H]2C(=O)O [FLOXACILLIN]	> 30 µM			> 30 µM		AC50 [5]: > 30 µM; AC50 (Acetylcholinesterase): > 30 µM; AC50 (D(1A) dopamine receptor): > 30 µM
Cc1ccc(C)c(OCCCC(C)(C)C(=O)O)c1 [GEMFIBROZIL]		> 10 µM				
C#C[C@]1(O)C=C[C@H]2[C@@H]3CCC4=CC(=O)CC[C@@H]4[C@H]3CC[C@@]21CC [GESTODENE]						AC50 [6]: > 30 µM
COc1cc(C(C)=O)ccc1OCCCN1CCC(c2noc3cc(F)ccc23)CC1 [ILOPERIDONE]	> 30 µM	> 10 µM	> 30 µM	> 30 µM	> 30 µM	AC50 [3]: 0.257 µM
CC[C@H](C)C(=O)O[C@H]1C[C@@H](C)C=C2C=C[C@H](C)[C@H](CC[C@@H]3C[C@@H](O)CC(=O)O3)[C@H]21 [LOVASTATIN]		> 10 µM				
CC(CN1c2ccccc2Sc2ccccc21)N(C)C (configuration not stated) [PROMETHAZINE]		> 10 µM				AC50 [6]: 0.03 µM
CN(CCOc1ccc(CC2SC(=O)NC2=O)cc1)c1ccccn1 (configuration not stated) [ROSIGLITAZONE]		> 10 µM				AC50 [3]: > 10 µM
S=P(N1CC1)(N1CC1)N1CC1 [THIOTEPA]	> 30 µM		> 30 µM	> 30 µM	> 30 µM	AC50 [5]: > 30 µM; AC50 (Acetylcholinesterase): > 30 µM; AC50 (D(1A) dopamine receptor): > 30 µM
C[C@]12C=CC(=O)C=C1CC[C@H]1[C@@H]3C[C@@H](O)[C@](O)(C(=O)CO)[C@@]3(C)C[C@H](O)[C@@]12F [TRIAMCINOLONE]	1.2 µM					
CC(C)C[C@H](NC(=O)[C@@H](O)[C@H](N)Cc1ccccc1)C(=O)O [UBENIMEX]						AC50 [6]: > 30 µM
CC(C)[C@H](N)C(=O)OCCOCn1cnc2c(=O)[nH]c(N)nc21 [VALACYCLOVIR]		> 10 µM				
COc1cc(C(=O)NS(=O)(=O)c2ccccc2C)ccc1Cc1cn(C)c2ccc(NC(=O)OC3CCCC3)cc12 [ZAFIRLUKAST]	> 30 µM					
